pIC50: −log10 of the molar value.
Key:
[1] = molecular target: T1, PLK1 (Homo sapiens, UniProt P53350); test: In vitro PLK1 ELISA assay (biochemical); design: purchased Cell Signalling 7728; settings: for IC50: ELISA, CHK2-derived peptide substrate, read-out: PLK1 IC50 (μM) biochemical assay
Method in brief: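 Commercial PLK1 phosphorylates neutravidin-captured biotinylated CHK2 peptide for 45 min at room temperature in HEPES pH 7.2 with Mg2+/Mn2+/DTT, compounds at 10 μM to 0.005 μM. Phospho-CHK2(T68) antibody plus HRP secondary gives chemiluminescent read-out used for IC50.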

[2] = molecular target: T1, PLK1; test: Cellular PLK1 assay in K562 cells overexpressing CDC25C; type: cell-based; design: endogenous in cells; host or cells: K562 (human chronic myelogenous leukemia) overexpressing CDC25C, nocodazole-arrested; settings: nocodazole arrested, cdc25c p-Ser198 readout
Method in brief: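 K562 cells overexpressing CDC25C were arrested with 333 nM nocodazole for 18 h at 37 °C, then exposed to compound at 8 points from 10 μM to 0.005 μM in duplicate for 120 min. After fixation and permeabilization, cells were stained for cdc25c pSer198 with a PE secondary and read by flow cytometry, 10,000 cells per well.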

[3] = read-out: IC50 in biochemical in vitro PLK1 ELISA assay (less than 10 μM)

T1 sequence (P53350 whole entry): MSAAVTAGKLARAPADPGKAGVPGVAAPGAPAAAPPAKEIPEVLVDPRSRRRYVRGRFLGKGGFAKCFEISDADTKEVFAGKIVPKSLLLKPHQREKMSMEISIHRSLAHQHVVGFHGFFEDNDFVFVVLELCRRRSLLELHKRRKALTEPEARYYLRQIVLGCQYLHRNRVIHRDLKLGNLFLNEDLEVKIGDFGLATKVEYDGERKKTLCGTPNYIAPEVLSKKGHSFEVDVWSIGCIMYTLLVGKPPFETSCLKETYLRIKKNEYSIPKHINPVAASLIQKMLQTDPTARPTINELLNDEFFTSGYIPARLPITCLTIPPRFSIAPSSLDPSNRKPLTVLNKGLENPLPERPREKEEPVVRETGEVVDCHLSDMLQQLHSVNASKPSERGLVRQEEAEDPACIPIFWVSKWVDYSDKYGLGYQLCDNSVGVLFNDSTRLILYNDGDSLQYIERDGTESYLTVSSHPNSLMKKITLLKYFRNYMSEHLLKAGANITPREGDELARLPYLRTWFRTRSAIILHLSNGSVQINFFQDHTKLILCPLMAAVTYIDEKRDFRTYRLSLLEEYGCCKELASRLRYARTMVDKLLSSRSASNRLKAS

SMILES	IC50 [1]	pIC50 [1, 3]	IC50 [2]	pIC50 ([1]; read-out: IC50 in biochemical ELISA assay (less than 0.01 μM))
CN1CCN(c2cccc(Nc3ncc(F)c(Nc4ccc5c(c4)NCCO5)n3)c2)CC1 [compound 20, N4-(3,4-dihydro-2H-benzo[b][1,4]oxazin-6-yl)-5-fluoro-N2-(3-(4-methylpiperazin-1-yl)phenyl)pyrimidine-2,4-diamine]	< 0.5 µM	> 5.00	0.5 to 5 µM	
Cc1cc(Nc2ncc(C)c(Nc3ccc4c(c3)N(Cc3ccccn3)C(=O)C(F)(F)O4)n2)ccc1N1CC2CC1CN2C (stereo not drawn) [compound 139, 2,2-difluoro-6-(5-methyl-2-(3-methyl-4-(5-methyl-2,5-diaza-bicyclo[2.2.1]heptan-2-yl)phenyl-amino)pyrimidin-4-ylamino)-4-(pyridin-2-ylmethyl)-2H-benzo[b][1,4]oxazin-3(4H)-one]	≥ 10 µM		5 to 10 µM	
CCCN1CCOc2ccc(Nc3nc(Nc4ccc(N5CC6CC5CN6S(C)(=O)=O)c(C)c4)ncc3C)nc21 (stereo not drawn) [compound 33, 5-methyl-N2-(3-methyl-4-(5-(methylsulfonyl)-2,5-diazabicyclo[2.2.1]heptan-2-yl)phenyl)-N4-(4-propyl-3,4-dihydro-2H-pyrido[3,2-b][1,4]oxazin-6-yl)pyrimidine-2,4-diamine]	< 0.5 µM	> 5.00	0.5 to 5 µM	
CC(C)c1cc(Nc2ncc(F)c(Nc3ccc4c(n3)NCCO4)n2)cc(N2CCN(C)CC2)c1 [compound 46, N4-(3,4-dihydro-2H-pyrido[3,2-b][1,4]oxazin-6-yl)-5-fluoro-N2-(3-isopropyl-5-(4-methylpiperazin-1-yl)phenyl)pyrimidine-2,4-diamine]	< 0.5 µM	> 5.00	0.5 to 5 µM	
CN1CCN(c2cccc(Nc3ncc(C(F)(F)F)c(Nc4ccc5c(n4)NCCO5)n3)c2)CC1 [compound 55, N4-(3,4-dihydro-2H-pyrido[3,2-b][1,4]oxazin-6-yl)-N2-(3-(4-methyl-piperazin-1-yl)phenyl)-5-(trifluoro-methyl)pyrimidine-2,4-diamine]	< 0.5 µM	> 5.00	< 0.5 µM	> 8.00
CCCN1C(=O)COc2ccc(Nc3nc(Nc4ccc(N5CC6CC5CN6C(C)=O)c(C)c4)ncc3C)nc21 (stereo not drawn) [compound 38, 6-(2-(4-(5-acetyl-2,5-diazabicyclo[2.2.1]heptan-2-yl)-3-methylphenyl-amino)-5-methyl-pyrimidin-4-ylamino)-4-propyl-2H-pyrido[3,2-b][1,4]oxazin-3(4H)-one]	< 0.5 µM	> 5.00	0.5 to 5 µM	
CN1CC2CC1CN2c1cccc(Nc2ncc(F)c(Nc3ccc4c(n3)NC(=O)CO4)n2)c1 (stereo not drawn) [compound 41, 6-(5-fluoro-2-(3-(5-methyl-2,5-diaza-bicyclo[2.2.1]heptan-2-yl)phenylamino)pyrimidin-4-ylamino)-2H-pyrido[3,2-b][1,4]oxazin-3(4H)-one]	< 0.5 µM	> 5.00	< 0.5 µM	

From patent US9040527B2, “Pyrimidinediamine kinase inhibitors” (Rigel Pharmaceuticals, Inc., priority 2008, dated 2015)
